Structures can show the parent of a compound that is named as a salt.
Target: T1, MPO (purified from human polynuclear leukocytes) (Homo sapiens, UniProt P05164)
T1 construct: purified from human polynuclear leukocytes; purchased Calbiochem/EMD Biosciences; host or cells: human polynuclear leukocytes (natural source)
Experiment: MPO Amplex Red Activity Assay
Assay type: biochemical
Conditions: Table 1, 2 μM H2O2, pH 7.4
Protocol: MPO Amplex Red Activity Assay.
MPO peroxidase activity was measured by monitoring the formation of resorufin generated from the oxidation of Amplex Red (10-Acetyl-3,7-dihydroxyphenoxazine) (Invitrogen, Carlsbad, Calif.) by MPO (Gomes, Fernandes et al. 2005). Assay mixtures (100 μL total volume) contained 50 mM NaPi pH 7.4, 150 mM NaCl, 1 mM DTPA (diethylenetriaminepentaacetic acid), 2% DMSO, 2 μM H2O2, 30 μM Amplex Red and the reaction was initiated by the addition of […] (purified from human polynuclear leukocytes and purchased from Calbiochem/EMD Biosciences, Gibbstown, N.J.). All assays were performed in 96-well, half-area, black, nonbinding surface, polystyrene plates (Corning) and the production of resorufin (excitation 530 nm, emission 580 nm) was monitored every 20 sec on a Spectramax M2 Microplate Spectrophotometer (Molecular Devices, Palo Alto, Calif.) equipped with Softmax Pro software (Molecular Devices, Palo Alto, Calif.). Reactions to determine the background reaction rate consisted of all assay components and 4 μL of 500 unit/mL bovine catalase (Sigma) in 50 mM KPi pH 7.0. The background rate was subtracted from each reaction progress curve. All data was analyzed using non-linear regression analysis in Microsoft Excel and Kaleidagraph (Synergy Software).
To determine inhibitor potency (kinact/KI) against MPO, the first 600 sec of the reaction progress curves were fit to equation 1, where Vo is the initial rate in RFU/sec and t is time in seconds, to obtain the first order rate constant for enzyme inactivation (kobs) at each inhibitor concentration.
[formula] Equation 1 is a variation of the standard equation for slow binding inhibition where the steady state velocity (Vs) is set to zero. Each kobs value was corrected for auto-inactivation of the enzyme by subtracting the kobs value for the uninhibited reaction. The corrected kobs values were then plotted versus inhibitor concentration ([I]) and fit to equation 2
[formula] where kinact is the maximal rate of inactivation and KI is the inhibitor concentration that yields half the rate of maximal inactivation (Copeland 2005).
Table 1 and (1A) below provides the myeloperoxidase inhibitory activity for the Examples below in accordance with the above-described assay.

T1 sequence (P05164 279-745 limits assumed): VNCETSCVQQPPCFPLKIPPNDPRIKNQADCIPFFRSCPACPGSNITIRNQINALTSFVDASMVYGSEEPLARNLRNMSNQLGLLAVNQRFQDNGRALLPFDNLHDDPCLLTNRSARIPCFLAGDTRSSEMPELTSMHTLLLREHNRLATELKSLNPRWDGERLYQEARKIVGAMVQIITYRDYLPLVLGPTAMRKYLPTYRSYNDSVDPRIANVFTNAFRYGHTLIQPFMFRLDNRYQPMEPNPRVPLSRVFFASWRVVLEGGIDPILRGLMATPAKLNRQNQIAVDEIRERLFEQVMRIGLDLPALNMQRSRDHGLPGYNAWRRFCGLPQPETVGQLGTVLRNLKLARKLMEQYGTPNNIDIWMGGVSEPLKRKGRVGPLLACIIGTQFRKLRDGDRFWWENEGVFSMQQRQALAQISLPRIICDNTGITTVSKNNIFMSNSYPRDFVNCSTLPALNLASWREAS
T1 sequence (P05164 165-273 limits assumed): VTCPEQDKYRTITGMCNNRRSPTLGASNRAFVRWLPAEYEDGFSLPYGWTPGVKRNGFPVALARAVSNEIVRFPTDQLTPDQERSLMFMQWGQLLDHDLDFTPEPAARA

| SMILES | MPO kinact/Ki |
| --- | --- |
| NCCn1c(-c2csc3ccccc23)cc(=O)[nH]c1=S [Example 36, 1-(2-aminoethyl)-6-(1-benzothien-3-yl)-2-thioxo-2,3-dihydropyrimidin-4(1H)-one hydrochloride] | 5980 1/s per M |
| NC(=O)Cn1c(-c2ccc3c(c2)CCO3)cc(=O)[nH]c1=S [Example 37, 2-[6-(2,3-dihydro-1-benzofuran-5-yl)-4-oxo-2-thioxo-3,4-dihydropyrimidin-1(2H)-yl]acetamide] | 6460 1/s per M |
| NCCCn1c(-c2ccc3c(c2)CCO3)cc(=O)[nH]c1=S [Example 38, 1-(3-aminopropyl)-6-(2,3-dihydro-1-benzofuran-5-yl)-2-thioxo-2,3-dihydropyrimidin-4(1H)-one hydrochloride] | 5240 1/s per M |
| O=c1cc(-c2csc3ccccc23)n(CCO)c(=S)[nH]1 [Example 39, 6-(1-benzothien-3-yl)-1-(2-hydroxyethyl)-2-thioxo-2,3-dihydropyrimidin-4(1H)-one] | 4520 1/s per M |
| O=c1cc(-c2cc3ccccc3s2)n(CCO)c(=S)[nH]1 [Example 40, 6-(1-benzothien-2-yl)-1-(2-hydroxyethyl)-2-thioxo-2,3-dihydropyrimidin-4(1H)-one] | 6430 1/s per M |
| O=c1cc(-c2cccc3ncsc23)n(CCO)c(=S)[nH]1 [Example 42, 6-(1,3-benzothiazol-7-yl)-1-(2-hydroxyethyl)-2-thioxo-2,3-dihydropyrimidin-4(1H)-one] | 6070 1/s per M |
| COc1ccc(C)cc1-c1cc(=O)[nH]c(=S)n1CCCN [Example 43, 1-(3-aminopropyl)-6-(2-methoxy-5-methylphenyl)-2-thioxo-2,3-dihydropyrimidin-4(1H)-one hydrochloride] | 34600 1/s per M |
| COc1ncc(C)cc1-c1cc(=O)[nH]c(=S)n1CC(N)=O [Example 44, 2-[6-(2-methoxy-5-methylpyridin-3-yl)-4-oxo-2-thioxo-3,4-dihydropyrimidin-1(2H)-yl]acetamide] | 3440 1/s per M |
| O=c1cc(-c2cccc3c2OCCO3)n(CCO)c(=S)[nH]1 [Example 47, 6-(2,3-dihydro-1,4-benzodioxin-5-yl)-1-(2-hydroxyethyl)-2-thioxo-2,3-dihydropyrimidin-4(1H)-one] | 2340 1/s per M |
| COc1cc(OC)cc(-c2cc(=O)[nH]c(=S)n2CCN)c1 [Example 48, 1-(2-aminoethyl)-6-(3,5-dimethoxyphenyl)-2-thioxo-2,3-dihydropyrimidin-4(1H)-one hydrochloride] | 6570 1/s per M |
| NCCOc1ccccc1-c1cc(=O)[nH]c(=S)n1CCO [Example 52, 6-[2-(2-aminoethoxy)phenyl]-1-(2-hydroxyethyl)-2-thioxo-2,3-dihydropyrimidin-4(1H)-one formate] | 33.4 1/s per M |
| NCCn1c(-c2ccccc2OCCO)cc(=O)[nH]c1=S [Example 53, 1-(2-aminoethyl)-6-[2-(2-hydroxyethoxy)phenyl]-2-thioxo-2,3-dihydropyrimidin-4(1H)-one hydrochloride] | 3290 1/s per M |
| COc1cc(OC)cc(-c2cc(=O)[nH]c(=S)n2CCO)c1 [Example 54, 6-(3,5-dimethoxyphenyl)-1-(2-hydroxyethyl)-2-thioxo-2,3-dihydropyrimidin-4(1H)-one] | 7070 1/s per M |
| COc1cc(F)ccc1-c1cc(=O)[nH]c(=S)n1CC(N)=O [Example 56, 2-[6-(4-fluoro-2-methoxyphenyl)-4-oxo-2-thioxo-3,4-dihydropyrimidin-1(2H)-yl]acetamide] | 4770 1/s per M |
| COc1cc(F)ccc1-c1cc(=O)[nH]c(=S)n1CCCN [Example 57, 1-(3-aminopropyl)-6-(4-fluoro-2-methoxyphenyl)-2-thioxo-2,3-dihydropyrimidin-4(1H)-one hydrochloride] | 13100 1/s per M |
| COc1ccc(F)cc1-c1cc(=O)[nH]c(=S)n1CCCN [Example 58, 1-(3-aminopropyl)-6-(5-fluoro-2-methoxyphenyl)-2-thioxo-2,3-dihydropyrimidin-4(1H)-one hydrochloride] | 11700 1/s per M |
| COc1ccc(F)cc1-c1cc(=O)[nH]c(=S)n1CC(N)=O [Example 59, 2-[6-(5-fluoro-2-methoxyphenyl)-4-oxo-2-thioxo-3,4-dihydropyrimidin-1(2H)-yl]acetamide] | 8480 1/s per M |

Now from value to compound:

| MPO kinact/Ki | SMILES |
| --- | --- |
| 4110 1/s per M | COCCn1c(-c2c[nH]c3ncccc23)cc(=O)[nH]c1=S [Example 35, 1-(2-methoxyethyl)-6-(1H-pyrrolo[2,3-b]pyridin-3-yl)-2-thioxo-2,3-dihydropyrimidin-4(1H)-one] |
| 5000 1/s per M | COCCn1c(-c2cccc3c2OCC3)cc(=O)[nH]c1=S [Example 41, 6-(2,3-dihydro-1-benzofuran-7-yl)-1-(2-methoxyethyl)-2-thioxo-2,3-dihydropyrimidin-4(1H)-one] |
| 4000 1/s per M | COc1ncc(C)cc1-c1cc(=O)[nH]c(=S)n1CCCN [Example 45, 1-(3-aminopropyl)-6-(2-methoxy-5-methylpyridin-3-yl)-2-thioxo-2,3-dihydropyrimidin-4(1H)-one trifluoroacetate] |
| 1110 1/s per M | COCCn1c(-c2ccccc2CCO)cc(=O)[nH]c1=S [Example 46, 6-[2-(2-hydroxyethyl)phenyl]-1-(2-methoxyethyl)-2-thioxo-2,3-dihydropyrimidin-4(1H)-one] |
| 2230 1/s per M | COCCn1c(-c2nc(C)ccc2OC)cc(=O)[nH]c1=S [Example 49, 1-(2-methoxyethyl)-6-(3-methoxy-6-methylpyridin-2-yl)-2-thioxo-2,3-dihydropyrimidin-4(1H)-one] |
| 2610 1/s per M | COCCn1c(-c2ccc(C)nc2OC)cc(=O)[nH]c1=S [Example 50, 1-(2-methoxyethyl)-6-(2-methoxy-6-methylpyridin-3-yl)-2-thioxo-2,3-dihydropyrimidin-4(1H)-one] |
| 6180 1/s per M | COCCn1c(-c2cc(C)cnc2OC)cc(=O)[nH]c1=S [Example 51, 1-(2-methoxyethyl)-6-(2-methoxy-5-methylpyridin-3-yl)-2-thioxo-2,3-dihydropyrimidin-4(1H)-one] |
| 7740 1/s per M | COCCn1c(-c2ccccc2SC)cc(=O)[nH]c1=S [Example 55, 1-(2-methoxyethyl)-6-[2-(methylthio)phenyl]-2-thioxo-2,3-dihydropyrimidin-4(1H)-one] |
| 3470 1/s per M | COCCn1c(-c2c(F)cccc2OC)cc(=O)[nH]c1=S [Example 60, 6-(2-fluoro-6-methoxyphenyl)-1-(2-methoxyethyl)-2-thioxo-2,3-dihydropyrimidin-4(1H)-one] |
| 3530 1/s per M | COc1ccc(-c2cc(=O)[nH]c(=S)n2CCN)c(Cl)c1 [Example 61, 1-(2-aminoethyl)-6-(2-chloro-4-methoxyphenyl)-2-thioxo-2,3-dihydropyrimidin-4(1H)-one hydrochloride] |
| 6930 1/s per M | COc1cc(Cl)ccc1-c1cc(=O)[nH]c(=S)n1CCN [Example 62, 1-(2-aminoethyl)-6-(4-chloro-2-methoxyphenyl)-2-thioxo-2,3-dihydropyrimidin-4(1H)-one hydrochloride] |

From patent US9399626B2, “2-thiopyrimidinones” (Pfizer Inc., priority 2011, dated 2016)
